Results as given in patent US7550469B2, “Heterocyclic amide derivatives and their use as dopamine D3 receptor ligands” (Aventis Pharmaceuticals Inc., priority 2001, dated 2009).
Like-named read-outs stand apart in the source and are kept apart here.

Assays:
[1] = target: Alpha-1 adrenergic receptors from rat brain cortex; experiment: [3H]Prazosin binding to alpha-1 adrenergic receptors from rat brain cortex (Protocol 4)
Excerpt: [^3H]Prazosin Binding to Alpha-1 Adrenergic Receptors from Rat Brain Cortex
Objective: This in vitro assay is designed as a screen to identify compounds displaying a affinity for the a, adrenoceptor subtype in membranes from rat cortex. It measures the ability of the test compounds to displace [^3H]prazosin from the α1 sites.
Membrane Preparation: Rat brain tissue can be obtained from either fresh (male Wistar rats; 200-250 g) or frozen (male Sprague-Dawley 200-250 g from Harlan; cat. #BT-403) stocks. The cortex is dissected, homogenized in 50 vol (wet weight) ice-cold 50 mM Tris buffer (pH 7.7 at 25° C.). The homogenate is centrifuged at 48,000 g for 10 min, the pellet is resuspended in 50 mM Tris buffer and centrifuged a second time. The second pellet (P2) is resuspended to yield a concentration of 115 mg wet weight per 10 ml. […] Membranes should be mixed just before addition to ensure an even suspension. […] This is diluted to a 0.5 mM stock in dH2O. Serial dilutions in Buffer A are made from which 50 μl additions to the plate are made in duplicate in order to achieve the final concentrations desired. Typically, one 96 well plate is used to evaluate 11 compounds at 4 concentrations (10^−6-10^−9 M) in duplicate. Total binding and nonspecific binding are determined in quadruplicate. Usually one standard is run with each assay. • [^3H]Prazosin is made up in Buffer A such that when 50 μl are added per well the final concentration is […] in a final assay volume of 200 μl. The final concentration should be verified by running a sample in a scintillation counter prior to adding the [^3H]prazosin to the 96 well plate. Note: The radioactivity should be prepared just before the additions are made so that it is not allowed to sit on the bench for very long. • Packard GF/B Plate Pretreatment: The filter plates are presoaked for at least 30 min in ice cold Buffer B containing 0.05% polyethyleneimine (200 μl/200 ml) to maximize filtration efficiency and minimize filter blank binding. • Incubation & Filtration: Once buffer, compounds, [^3H]prazosin and membrane have been added (and mixed), the 96 well plates are incubated for 40 min at 37° C. and spaced 3-5 min apart. At 40 min, the plates are filtered using a Tomtec Automated Cell Harvester. Filtration is immediately followed by washes of ice cold Buffer B (total vol. ˜7 ml). • Drying and Counting: Each filter plate is dried under a heat lamp for 15 min. The back of the plate is sealed and 40 μl of Packard microscint fluid are added per well. Using Packard film, each plate is heat sealed prior to being counted in a Packard Topcount Scintillation counter. A program has been written that counts each plate twice sending DPM, CPM and TSIS data to disk and printer. • Analysis of Results: Raw DPM and CPM data are captured on disk and are imported into one of several software packages (Graphpad Prism Ver 2.0, Excel) residing on the LAN. Specific binding is defined as the difference between total binding and the binding in the presence of 10 μM phentolamine. Total binding is less than 10% of the total added ligand. Software using one-site competition curve analysis is employed in the calculation of IC50 and KI (Cheng-Prusoff equation, 1973). The top and bottom of the non-linear regression are held constant at 0% and 100% inhibition. The percent inhibition at each drug concentration is the mean of duplicate determinations.

[2] = target: T1, cloned human dopamine D3 receptors (Homo sapiens, UniProt P35462); experiment: [N-Methyl-3H]Spiroperidol binding to cloned human dopamine D3 receptors (Protocol 1)
T1 construct: expressed in transfected cells; membrane homogenate
Outline: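 Radioligand displacement with [N-methyl-3H]spiroperidol used a physiological-salt Tris buffer (0.05 M, pH 7.7; NaCl 120 mM, KCl 5 mM, CaCl2 2 mM, MgCl2 1 mM) and membranes of a high-expressing stable CHO clone carrying human D3. Total ligand concentration came from measured added CPM; 0.1% ascorbic acid was optional for oxidizable compounds.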

[3] = r = rat, piperazines (n = 1) vs homopiperazines (n = 2), read-out: r-α1 Ki
[4] = rat α-1, read-out: rat alpha 1 Ki
[5] = the 22nd table, read-out: D3 Ki
[6] = the 17th table, read-out: D3 Ki
[7] = the 24th table, read-out: D3 Ki
[8] = the 23rd table, read-out: D3 Ki
[9] = the 26th table, read-out: D3 Ki

T1 sequence (P35462 whole entry): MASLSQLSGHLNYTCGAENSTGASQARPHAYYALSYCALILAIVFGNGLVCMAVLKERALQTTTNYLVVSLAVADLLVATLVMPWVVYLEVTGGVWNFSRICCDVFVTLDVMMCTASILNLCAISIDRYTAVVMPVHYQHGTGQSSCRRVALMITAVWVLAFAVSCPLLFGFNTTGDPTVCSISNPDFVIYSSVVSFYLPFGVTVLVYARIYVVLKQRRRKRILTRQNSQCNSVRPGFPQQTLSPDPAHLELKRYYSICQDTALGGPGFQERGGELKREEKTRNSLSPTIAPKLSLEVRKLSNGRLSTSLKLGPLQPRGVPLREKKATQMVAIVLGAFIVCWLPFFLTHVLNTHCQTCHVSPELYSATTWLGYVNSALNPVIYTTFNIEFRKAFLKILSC

In the case of `O=C(NCCCCN1CCN(c2csc3cc(F)ccc23)CC1)c1cc2ccccc2s1` [compound 811614], the Ki [1, 3] is reported as 0.005 µM and the Ki [1, 4] is reported as 0.005 µM.
Molecule `COc1ccccc1C(=O)NCCCCN1CCN(c2csc3cc(F)ccc23)CC1` [compound 813368] has a Ki [1, 3] of 0.0041 µM and a Ki [1, 4] of 0.0041 µM.
Work on `O=C(NCCCCN1CCN(c2csc3cc(F)ccc23)CC1)c1ccco1` [compound 813371] yielded a Ki [1, 3] of 0.0011 µM and a Ki [1, 4] of 0.0011 µM.
`O=C(NCCCCN1CCN(c2csc3cc(F)ccc23)CC1)c1ccc2ccccc2c1` [compound 813372] was tested, and the Ki [1, 3] was 0.0406 µM.
For `O=C(NCCCCN1CCN(c2csc3cc(F)ccc23)CC1)c1cc2ccccc2[nH]1` [compound 813373], the Ki [1, 3] was 0.0252 µM.
Molecule `O=C(NCCCCN1CCN(c2csc3cc(F)ccc23)CC1)c1ccc(C(F)(F)F)cc1` [compound 813374] has a Ki [1, 3] of 0.0324 µM and a Ki [1, 4] of 0.0324 µM.
`O=C(NCCCCN1CCN(c2noc3ccsc23)CC1)c1cccs1` [compound 829687] showed a Ki [2, 5] of 50.3 nM.
`O=C(NCCCCN1CCN(c2noc3ccsc23)CC1)c1cnc2ccccc2n1` [compound 829688] was tested, and the Ki [2, 5] was 673 nM.
`O=C(NCCCCN1CCN(c2noc3ccsc23)CC1)c1cc(C(F)(F)F)ccc1F` [compound 829691] was tested, and the Ki [2, 5] was 151 nM.
With `Cc1csc2c(N3CCN(CCCCNC(=O)CCCc4ccccc4)CC3)noc12` [compound 830748] the Ki [2, 5] was 63.8 nM.
Work on `O=C(Cc1ccccc1)NC[C@@H]1CC1CN1CCCN(c2csc3cc(F)ccc23)CC1` (stereo partly shown) [compound 831203] yielded a Ki [2, 6] of 3.21 nM.
`O=C(Cc1ccccc1)NC[C@@H]1CC1CN1CCCN(c2csc3cc(F)ccc23)CC1` (stereo partly shown) [compound 831204] gave a Ki [2, 6] of 5.05 nM.
`O=S(=O)(NCC1CC1CN1CCC(c2noc3ccsc23)CC1)c1ccc(F)cc1` (stereo not shown) [compound 831363] was tested, and the Ki [2, 7] was 36.3 nM.
`CC(C)S(=O)(=O)NCC1CC1CN1CCC(c2noc3ccsc23)CC1` (stereo not shown) [compound 831366] was tested, and the Ki [2, 7] was 113 nM.
`COc1ccc(S(=O)(=O)NCC2CC2CN2CCC(c3noc4ccsc34)CC2)cc1` (stereo not shown) [compound 831464] was tested, and the Ki [2, 7] was 43.3 nM.
Molecule `COc1ccc(S(=O)(=O)NCC2CC2CN2CCN(c3csc4cc(C(F)(F)F)ccc34)CC2)cc1` (stereo not shown) [compound 831500] has a Ki [2, 7] of 28.1 nM.
For `CC(C)(C)c1ccc(S(=O)(=O)NCC2CC2CN2CCC(c3noc4ccsc34)CC2)cc1` (stereo not shown) [compound 831512], the Ki [2, 7] was 53.9 nM.
For `O=S(=O)(NCC1CC1CN1CCC(c2noc3ccsc23)CC1)c1ccc(OC(F)(F)F)cc1` (stereo not shown) [compound 831513], the Ki [2, 7] was 65.5 nM.
Molecule `O=S(=O)(NCC1CC1CN1CCN(c2csc3cc(C(F)(F)F)ccc23)CC1)c1ccc(OC(F)(F)F)cc1` (stereo not shown) [compound 831592] has a Ki [2, 7] of 195 nM.
`CCCCS(=O)(=O)NCC1CC1CN1CCN(c2csc3cc(C(F)(F)F)ccc23)CC1` (stereo not shown) [compound 831636] showed a Ki [2, 7] of 186 nM.
`COc1ccc(OC(=O)NCC2CC2CN2CCC(c3noc4ccsc34)CC2)cc1` (stereo not shown) [compound 831671] was tested, and the Ki ([2]; D3 Ki (nM), the 25th table) was 96.4 nM.
In the case of `CCCCOC(=O)NCC1CC1CN1CCC(c2noc3ccsc23)CC1` (stereo not shown) [compound 831696], the Ki ([2]; the 25th table, read-out: D3 Ki) is reported as 29.3 nM.
`O=C(NCC1CC1CN1CCC(c2noc3ccsc23)CC1)Oc1ccc(F)cc1` (stereo not shown) [compound 831697] was tested, and the Ki ([2]; D3 Ki (nM), the 25th table) was 8.35 nM.
Work on `Cc1ccc(OC(=O)NCC2CC2CN2CCC(c3noc4ccsc34)CC2)cc1` (stereo not shown) [compound 831698] yielded a Ki ([2]; D3 Ki (nM), the 25th table) of 29.4 nM.
Work on `O=C(NCC1CC1CN1CCC(c2noc3ccsc23)CC1)Oc1ccccc1` (stereo not shown) [compound 831699] yielded a Ki ([2]; D3 Ki (nM), the 25th table) of 3.04 nM.
With `CC[C@H]1CC[C@H](NC[C@@H]2C[C@H]2CN2CCN(c3ccccc3C)CC2)CC1` [compound 831876] the Ki [2, 8] was 12 nM.
Work on `O=S(=O)(CCc1cccc2ccccc12)NCC1CC1CN1CCN(c2csc3cc(C(F)(F)F)ccc23)CC1` (stereo not shown) [compound 831910] yielded a Ki [2, 7] of 277 nM.
`OC(CCN1CCC(c2noc3ccsc23)CC1)CN1CCN(c2ccc(F)cc2)CC1` (stereo not shown) [compound 831939] showed a Ki [2, 9] of 90 nM.
`OC(CCN1CCC(c2noc3ccsc23)CC1)CN1CCOCC1` (stereo not shown) [compound 831940] showed a Ki [2, 9] of 356 nM.
`OC(CCN1CCC(c2noc3ccsc23)CC1)CN1CCc2ccccc2C1` (stereo not shown) [compound 831941] gave a Ki [2, 9] of 161 nM.
`OC(CCN1CCC(c2noc3ccsc23)CC1)CN1CCN(c2ccccc2)CC1` (stereo not shown) [compound 831943] showed a Ki [2, 9] of 264 nM.
`OC(CCN1CCC(c2noc3ccsc23)CC1)CN1CCC(Cc2ccccc2)CC1` (stereo not shown) [compound 831944] gave a Ki [2, 9] of 38.5 nM.
With `OC(CCN1CCC(c2noc3ccsc23)CC1)CNCCc1ccccc1` (stereo not shown) [compound 831945] the Ki [2, 9] was 700 nM.
`C[C@H]1CC[C@H](NC[C@@H]2C[C@H]2CN2CCN(c3csc4cc(C(F)(F)F)ccc34)CC2)CC1` [compound 832209] showed a Ki [2, 8] of 13.5 nM.
`CCC1CCC(NCC2CC2CN2CCN(c3cc(C)ccc3C)CC2)CC1` (stereo not shown) [compound 832265] gave a Ki [2, 8] of 72.8 nM.
In the case of `CC[C@H]1CC[C@H](NC[C@@H]2C[C@H]2CN2CCN(c3ccc(C)cc3C)CC2)CC1` [compound 832266], the Ki [2, 8] is reported as 29.6 nM.
`C[C@H]1CC[C@H](NC[C@@H]2C[C@H]2CN2CCC(c3noc4c(C(F)(F)F)cccc34)CC2)CC1` [compound 832275] gave a Ki [2, 8] of 33.6 nM.
Work on `CC(C)CCNC[C@@H]1C[C@H]1CN1CCN(c2csc3cc(C(F)(F)F)ccc23)CC1` [compound 832276] yielded a Ki [2, 8] of 30.3 nM.
Molecule `COc1ccc(NC[C@@H]2C[C@H]2CN2CCN(c3csc4cc(C(F)(F)F)ccc34)CC2)cc1` [compound 832279] has a Ki [2, 8] of 57 nM.
Work on `CSCCCNC[C@@H]1C[C@H]1CN1CCN(c2csc3cc(C(F)(F)F)ccc23)CC1` [compound 832280] yielded a Ki [2, 8] of 19.2 nM.
With `FC(F)(F)c1ccc2c(N3CCN(C[C@@H]4C[C@H]4CNCCc4cccnc4)CC3)csc2c1` [compound 832281] the Ki [2, 8] was 5.59 nM.
In the case of `FC(F)(F)c1ccc2c(N3CCN(C[C@@H]4C[C@H]4CNCCc4ccccc4)CC3)csc2c1` [compound 832322], the Ki [2, 8] is reported as 227 nM.
Work on `CC[C@H]1CC[C@H](NC[C@@H]2C[C@H]2CN2CCN(c3c(Cl)sc4cc(C(F)(F)F)ccc34)CC2)CC1` [compound 832329] yielded a Ki [2, 8] of 151 nM.
`FC(F)(F)c1ccc2c(N3CCN(C[C@@H]4C[C@H]4CNC4CCN(CC5CC5)CC4)CC3)csc2c1` [compound 832387] showed a Ki [2, 8] of 36.5 nM.
`FC(F)(F)c1ccc2c(N3CCN(C[C@@H]4C[C@H]4CNCCSc4ccc(Cl)cc4)CC3)csc2c1` [compound 832388] was tested, and the Ki [2, 8] was 71.9 nM.
For `CC[C@H]1CC[C@H](NCC2(CCN3CCC(c4noc5ccsc45)CC3)CC2)CC1` [compound 832401], the Ki [2, 8] was 124 nM.
Work on `FC(F)(F)c1cccc2c(C3CCN(C[C@@H]4C[C@H]4CNCC45CC6CC(CC(C6)C4)C5)CC3)noc12` [compound 832783] yielded a Ki [2, 8] of 47.6 nM.
`Cc1nc(Cl)c(Cl)n1CCCNC[C@@H]1C[C@H]1CN1CCN(c2csc3cc(C(F)(F)F)ccc23)CC1` [compound 832817] gave a Ki [2, 8] of 36.5 nM.
`FC(F)(F)Oc1cccc(CNC[C@@H]2C[C@H]2CN2CCN(c3csc4cc(C(F)(F)F)ccc34)CC2)c1` [compound 833067] gave a Ki [2, 8] of 54.9 nM.
`FC(F)(F)c1ccc2c(N3CCN(C[C@@H]4C[C@H]4CNCCCn4ccnc4)CC3)csc2c1` [compound 833257, (3-imidazol-1-yl-propyl)-{(1R,2R)-2-[4-(6-trifluoromethyl-benzo[b]thiophen-3-yl)-piperazin-1-ylmethyl]-cyclopropylmethyl}-amine] showed a Ki [2, 8] of 2.62 nM.
With `COc1cccc2c(C3CCN(C[C@@H]4C[C@H]4CN[C@H]4CC[C@H](C)CC4)CC3)noc12` [compound 833329] the Ki [2, 8] was 31.9 nM.
`FC(F)(F)c1ccc2c(N3CCN(C[C@@H]4C[C@H]4CN4CCC(n5ccnc5)CC4)CC3)csc2c1` [compound 833349] was tested, and the Ki [2, 8] was 22.9 nM.
`COc1ccccc1N1CCN(C[C@@H]2C[C@H]2CN2CCN(c3csc4cc(C(F)(F)F)ccc34)CC2)CC1` [compound 833379] gave a Ki [2, 8] of 0.84 nM.
Work on `COc1cccc2c(C3CCN(C[C@@H]4C[C@H]4CNCCC(C)(C)C)CC3)noc12` [compound 833433] yielded a Ki [2, 8] of 112 nM.
